In the NIST ThermoML archive (doi:10.1021/je501106d):

Conditions: for speed of sound: Brillouin scattering; for vapor or sublimation pressure: Closed cell (Static) method

CCCCCCC [heptane]
speed of sound [m/s], Liquid
Conditions | 1000 kPa | 2500 kPa | 4000 kPa | 5500 kPa | 7000 kPa | 8500 kPa
302.15 K | 1112.9 | 1126.4 | 1139 | 1152 | 1163.2 | 1174.3
318.15 K | 1054.1 | 1066.6 | 1079 | 1091 | 1102 | 1113
333.15 K | 997.8 | 1010 | 1022 | 1034 | 1045 | 1057
348.15 K | 940.3 | 952.9 | 965.3 | 977.6 | 989.7 | 1002
363.15 K | 881.6 | 895.3 | 908.8 | 922 | 934.9 | 947.6
378.15 K | 821.8 | 837.2 | 852.2 | 866.8 | 881 | 894.7
393.15 K | 760.8 | 778.7 | 795.8 | 812.2 | 827.9 | 842.9
408.15 K | 698.6 | 719.6 | 739.4 | 758.2 | 775.8 | 792.2
418.15 K | 656.6 | 680 | 701.9 | 722.4 | 741.5 | 759.1
428.15 K | 614 | 640.1 | 664.4 | 686.9 | 707.6 | 726.4
438.15 K | 570.9 | 600 | 626.9 | 651.6 | 674 | 694.3
448.15 K | 527.2 | 559.7 | 589.5 | 616.6 | 640.9 | 662.6
453.15 K | 505.2 | 539.5 | 570.8 | 599.1 | 624.5 | 647
458.15 K | 483.1 | 519.2 | 552.1 | 581.7 | 608.2 | 631.4
463.15 K | – | 498.9 | 533.4 | 564.4 | 592 | 616
468.15 K | – | 478.5 | 514.7 | 547.2 | 559.8 | 600.8
473.15 K | – | 458 | 496 | 530 | 543.9 | 570.6
478.15 K | – | 437.5 | 477.4 | 512 | 528.1 | 555.7
483.15 K | – | 416.9 | 458.7 | 495.7 | 512.3 | 540.9
488.15 K | – | 396.3 | 440 | 478.7 | 496.7 | 526.3
493.15 K | – | 375.7 | 421.4 | 461.7 | – | –
498.15 K | – | 354.9 | 402.8 | 444.8 | – | –
503.15 K | – | 334.2 | 384.1 | 428 | – | –
508.15 K | – | 313.3 | 365.5 | 411.2 | – | –
513.15 K | – | 292.4 | 346.9 | 394.5 | – | –
518.15 K | – | 271.5 | 328.3 | 377.8 | – | –
523.15 K | – | – | 309.7 | 361.2 | – | –
528.15 K | – | – | 291.1 | 344.6 | – | –

Conditions | speed of sound, Gas [m/s] | speed of sound, Liquid [m/s] | vapor or sublimation pressure, Liquid [kPa]
302.15 K | – | 1108 | 12
318.15 K | – | 1042 | 31
333.15 K | – | 981.5 | 50
348.15 K | – | 921.1 | 84
363.15 K | – | 861.2 | 116
378.15 K | – | 801.6 | 152
393.15 K | – | 742.3 | 204
408.15 K | 170.3 | 683.1 | 286
418.15 K | 168.1 | 643.5 | 352
428.15 K | 165.9 | 603.9 | 441
438.15 K | 163.4 | 564 | 535
448.15 K | 160.5 | 523.9 | 654
453.15 K | 158.8 | 503.6 | 711
458.15 K | 157 | 483.3 | 780
463.15 K | 155 | 462.8 | 853
468.15 K | 152.8 | 442.2 | 935
473.15 K | 150.3 | 421.3 | 1022
478.15 K | 147.5 | 400.3 | 1114
483.15 K | 144.5 | 379 | 1203
488.15 K | 141.2 | 357.4 | 1307
493.15 K | 137.5 | 335.4 | 1409
498.15 K | 133.4 | 313 | 1532
503.15 K | 129 | 290.1 | 1649
508.15 K | 124.1 | 266.6 | 1781
513.15 K | 118.7 | 242.4 | 1910
518.15 K | 112.8 | 217.3 | 2049
523.15 K | 106.4 | 190.9 | 2201
528.15 K | 99.37 | 162.7 | 2358
533.15 K | 91.71 | 131.9 | 2519
536.15 K | 86.78 | 111.1 | 2630
